For one compound, Drug metabolism results are on record in ChEMBL document CHEMBL4706561, “Efficient chemoenzymatic synthesis of fluorinated sialyl Thomsen-Friedenreich antigens and investigation of their characteristics” (Eur J Med Chem, 2020).

For this series, the target named is T1, Sialidase (Clostridium perfringens, UniProt P10481).
T1 sequence (P10481 whole entry): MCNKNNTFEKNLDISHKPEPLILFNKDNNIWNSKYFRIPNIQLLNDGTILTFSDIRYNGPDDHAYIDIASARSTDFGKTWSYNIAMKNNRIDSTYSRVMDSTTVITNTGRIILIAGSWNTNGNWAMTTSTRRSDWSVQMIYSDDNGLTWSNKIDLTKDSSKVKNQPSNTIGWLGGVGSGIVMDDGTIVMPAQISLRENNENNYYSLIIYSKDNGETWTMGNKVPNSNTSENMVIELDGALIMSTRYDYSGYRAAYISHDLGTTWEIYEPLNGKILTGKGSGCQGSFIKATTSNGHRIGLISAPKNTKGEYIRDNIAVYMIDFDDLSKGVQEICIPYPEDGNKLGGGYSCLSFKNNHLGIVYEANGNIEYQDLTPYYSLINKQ
As to the kind of experiment: Stability in D2O assessed as Clostridium perfringens sialidase-mediated hydrolysis by measuring betaKdn formation at 10 mM measured after 12 hrs by 1H NMR spectroscopy. It counts as ADME. The note with it: 10000 µM.

For the compound `CC(=O)N[C@H]1[C@@H](OCCCN=[N+]=[N-])O[C@H](CO)[C@H](O)[C@@H]1O[C@@H]1O[C@H](CF)[C@H](O)[C@H](O[C@]2(C(=O)O)C[C@H](O)[C@@H](O)[C@H]([C@H](O)[C@H](O)CO)O2)[C@H]1O`, the Drug metabolism result is “Metabolite_Notdetected”.
